In one experiment the target is T1, Human Calpain 9/NS1 (Homo sapiens, UniProt O14815).
T1 sequence (O14815 1-690): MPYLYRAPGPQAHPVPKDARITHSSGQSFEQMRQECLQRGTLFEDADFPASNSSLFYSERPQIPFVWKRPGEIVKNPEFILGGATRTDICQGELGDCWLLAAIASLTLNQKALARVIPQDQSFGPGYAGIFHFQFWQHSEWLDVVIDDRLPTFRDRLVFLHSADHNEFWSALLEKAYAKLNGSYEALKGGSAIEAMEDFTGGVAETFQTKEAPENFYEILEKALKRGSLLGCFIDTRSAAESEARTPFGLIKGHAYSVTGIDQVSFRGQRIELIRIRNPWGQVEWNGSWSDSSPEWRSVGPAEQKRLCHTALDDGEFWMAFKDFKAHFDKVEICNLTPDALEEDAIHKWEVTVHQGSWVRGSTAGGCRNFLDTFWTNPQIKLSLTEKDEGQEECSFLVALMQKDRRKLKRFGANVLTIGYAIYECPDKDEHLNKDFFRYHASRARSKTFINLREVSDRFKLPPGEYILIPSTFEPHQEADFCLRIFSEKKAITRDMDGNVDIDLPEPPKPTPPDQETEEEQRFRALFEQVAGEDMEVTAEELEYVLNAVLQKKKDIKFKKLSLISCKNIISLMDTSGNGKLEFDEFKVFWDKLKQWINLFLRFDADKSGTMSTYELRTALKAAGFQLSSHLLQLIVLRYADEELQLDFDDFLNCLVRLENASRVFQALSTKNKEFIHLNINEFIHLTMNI
T1 sequence (P04632 1-268 partner): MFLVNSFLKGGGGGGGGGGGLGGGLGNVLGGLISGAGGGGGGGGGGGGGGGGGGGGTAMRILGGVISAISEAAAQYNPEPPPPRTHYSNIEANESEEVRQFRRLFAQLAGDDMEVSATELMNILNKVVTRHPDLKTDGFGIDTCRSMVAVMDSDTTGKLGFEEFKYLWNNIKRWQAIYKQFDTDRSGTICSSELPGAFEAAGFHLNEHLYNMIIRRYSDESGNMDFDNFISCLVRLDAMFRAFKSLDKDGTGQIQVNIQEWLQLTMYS
The experiment in a line: Calpain inhibition continuous fluorescence (FRET) assay, Human Calpain 9/NS1. Type of experiment: biochemical. The following applies: read-out: Human Calpain 9/NS1 IC50. The method, boiled down:
(§1)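 Continuous FRET read (ex 490/em 520 nm, 10 min) of calpain 1, 2 or 9 cleaving an internally quenched 5-FAM peptide, triggered by substrate with CaCl2 after enzyme–inhibitor incubation at ambient 25 °C, pH 7.5 Tris/NaCl/DTT buffer. IC50 from initial rates (1-5 min) via 4-parameter fit.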

For another experiment, the target named is T2, Human Calpain 2/NS1 (Homo sapiens, UniProt P17655).
T2 sequence (P17655 1-700): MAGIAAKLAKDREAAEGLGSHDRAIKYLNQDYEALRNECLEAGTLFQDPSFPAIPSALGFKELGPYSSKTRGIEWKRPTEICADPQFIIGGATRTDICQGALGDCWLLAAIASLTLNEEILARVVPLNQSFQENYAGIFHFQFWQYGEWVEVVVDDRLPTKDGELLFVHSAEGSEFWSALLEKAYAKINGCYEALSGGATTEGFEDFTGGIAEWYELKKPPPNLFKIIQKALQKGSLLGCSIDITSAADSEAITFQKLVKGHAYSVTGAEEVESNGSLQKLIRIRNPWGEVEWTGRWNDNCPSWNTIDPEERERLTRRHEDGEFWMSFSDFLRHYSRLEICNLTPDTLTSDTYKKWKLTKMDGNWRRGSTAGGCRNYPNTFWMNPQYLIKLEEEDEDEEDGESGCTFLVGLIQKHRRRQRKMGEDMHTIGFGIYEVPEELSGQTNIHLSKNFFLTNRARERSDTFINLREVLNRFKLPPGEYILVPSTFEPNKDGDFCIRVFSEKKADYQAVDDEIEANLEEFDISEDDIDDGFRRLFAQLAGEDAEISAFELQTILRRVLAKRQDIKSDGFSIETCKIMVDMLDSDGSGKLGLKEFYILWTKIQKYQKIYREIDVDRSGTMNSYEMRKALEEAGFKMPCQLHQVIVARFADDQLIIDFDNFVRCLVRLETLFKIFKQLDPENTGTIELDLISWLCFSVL
T2 sequence (P04632 1-268 partner): T1 sequence (P04632 1-268 partner)
The experiment in a line: Calpain inhibition continuous fluorescence (FRET) assay, Human Calpain 2/NS1. Format: biochemical. Particulars: read-out: Human Calpain 2/NS1 IC50. The method, boiled down:
as §1

Another experiment concerns the target T3, Human Calpain 1/NS1 (Homo sapiens, UniProt P07384).
T3 sequence (P07384 1-714): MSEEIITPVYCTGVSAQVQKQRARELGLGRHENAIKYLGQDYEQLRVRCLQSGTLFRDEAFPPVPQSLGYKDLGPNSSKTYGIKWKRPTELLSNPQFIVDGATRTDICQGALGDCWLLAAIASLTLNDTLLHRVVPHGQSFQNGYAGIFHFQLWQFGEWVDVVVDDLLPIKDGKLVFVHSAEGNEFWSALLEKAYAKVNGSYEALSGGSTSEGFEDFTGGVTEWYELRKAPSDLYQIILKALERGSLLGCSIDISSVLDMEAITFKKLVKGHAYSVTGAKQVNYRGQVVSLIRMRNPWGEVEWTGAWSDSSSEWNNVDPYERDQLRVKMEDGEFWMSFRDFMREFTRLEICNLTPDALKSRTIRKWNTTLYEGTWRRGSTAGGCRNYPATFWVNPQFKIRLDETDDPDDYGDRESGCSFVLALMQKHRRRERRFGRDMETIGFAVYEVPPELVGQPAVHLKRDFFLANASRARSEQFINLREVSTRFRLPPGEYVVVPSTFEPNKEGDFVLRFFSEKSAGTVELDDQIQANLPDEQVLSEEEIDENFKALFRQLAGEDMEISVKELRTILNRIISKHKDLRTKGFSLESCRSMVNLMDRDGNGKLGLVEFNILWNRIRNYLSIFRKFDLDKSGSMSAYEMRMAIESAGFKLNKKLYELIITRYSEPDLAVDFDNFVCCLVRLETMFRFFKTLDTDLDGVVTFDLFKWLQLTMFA
T3 sequence (P04632 1-268 partner): T1 sequence (P04632 1-268 partner)
The experiment in a line: Calpain inhibition continuous fluorescence (FRET) assay, Human Calpain 1/NS1. Format: biochemical. The following applies: read-out: Human Calpain 1/NS1 IC50. The method, boiled down: as §1

Experiment [1] deals with Calpain activity in SH-SY5Y cells. The experiment in a line: SH-SY5Y + AMC fluorescence assay (Suc-LLVY-AMC substrate). Format: cell-based.
Where [2] appears, read: Column E, read-out: SH-SY5Y + AMC IC50.

The record followed here is US11339130B1 (Blade Therapeutics, Inc., priority 2016, dated 2022).

Like-named read-outs stand apart in the source and are kept apart here. Some results are limits rather than exact numbers.

For `Cc1nc(-c2ccccc2)c(C(=O)N[C@@H](Cc2ccc(OS(=O)(=O)C(F)(F)F)cc2)C(=O)C(N)=O)o1` [Compound 355], the IC50 on Human Calpain 9/NS1 was below 3 µM; on Human Calpain 2/NS1, below 3 µM; at Human Calpain 1/NS1, below 3 µM; in experiment [1] (read-out: SH-SY5Y + AMC IC50), 10 to 25 µM.

On to `NC(=O)C(=O)C(Cc1ccccc1)NC(=O)[C@@H]1CC2(CC2)CN1c1ccccc1` (stereo partly drawn) [Compound 411, (6S)—N-(4-amino-3,4-dioxo-1-phenylbutan-2-yl)-5-phenyl-5-azaspiro[2.4]heptane-6-carboxamide], for which the IC50 at Human Calpain 9/NS1 was below 3 µM; at Human Calpain 2/NS1 it was below 3 µM; at Human Calpain 1/NS1 it was below 3 µM; in experiment [1] (read-out: SH-SY5Y + AMC IC50), 10 to 25 µM.

Take “(S)—N-(4-amino-3,4-dioxo-1-phenylbutan-2-yl)-1-methyl-3-(pyrimidin-4-yl)-1H-pyrazole-4-carboxamide [Compound 193]”: the IC50 on Human Calpain 9/NS1 (Column C) was 3 to 10 µM; at Human Calpain 2/NS1 (Column B), below 3 µM; at Human Calpain 1/NS1 (Column A), 3 to 10 µM; in experiment [1] (setting [2]) it was above 25 µM.

On to `NC(=O)C(=O)[C@H](Cc1ccccc1)NC(=O)c1conc1-c1cccc(F)c1` [Compound 323, (S)—N-(4-amino-3,4-dioxo-1-phenylbutan-2-yl)-3-(3-fluorophenyl)isoxazole-4-carboxamide], for which the IC50 on Human Calpain 9/NS1 was below 3 µM; at Human Calpain 2/NS1, below 3 µM; at Human Calpain 1/NS1 it was below 3 µM; in experiment [1] (read-out: SH-SY5Y + AMC IC50), above 25 µM.

As for `NC(=O)C(=O)C(Cc1ccccc1)NC(=O)c1cn(C2CC2)nc1-c1ccc(C(F)(F)F)nc1` (centres unmarked) [Compound 414, N-(4-amino-3,4-dioxo-1-phenylbutan-2-yl)-1-cyclopropyl-3-(6-(trifluoromethyl)pyridin-3-yl)-1H-pyrazole-4-carboxamide], the IC50 is below 3 µM at Human Calpain 9/NS1, below 3 µM at Human Calpain 2/NS1, below 3 µM on Human Calpain 1/NS1 and above 25 µM in experiment [1] (read-out: SH-SY5Y + AMC IC50).

`CNC(=O)CNC(=O)C(=O)[C@H](Cc1ccccc1)NC(=O)c1cn(C)nc1-c1ccccc1` [Compound 336, (S)-1-methyl-N-(4-((2-(methylamino)-2-oxoethyl)amino)-3,4-dioxo-1-phenylbutan-2-yl)-3-phenyl-1H-pyrazole-4-carboxamide]: the IC50 at Human Calpain 9/NS1 was below 3 µM; on Human Calpain 2/NS1, below 3 µM; on Human Calpain 1/NS1, below 3 µM; in experiment [1] (read-out: SH-SY5Y + AMC IC50), below 10 µM.

In the case of `COC(=O)NCc1cccc(-n2nc(C)cc2C(=O)N[C@@H](Cc2ccccc2)C(=O)C(N)=O)c1` [Compound 140, Methyl (S)-(3-(5-((4-amino-3,4-dioxo-1-phenylbutan-2-yl)carbamoyl)-3-methyl-1H-pyrazol-1-yl)benzyl)carbamate], the IC50 on Human Calpain 9/NS1 (Column C) was below 3 µM; on Human Calpain 2/NS1 (Column B), below 3 µM; at Human Calpain 1/NS1 (Column A), below 3 µM; in experiment [1] (read-out: SH-SY5Y + AMC IC50, Column E), 10 to 25 µM.

As for `O=C(NC1CC1)C(=O)C(Cc1ccccc1)NC(=O)c1cc(Cl)nn1-c1ncccn1` (centres unmarked) [Compound 457, 3-chloro-N-(4-(cyclopropylamino)-3,4-dioxo-1-phenylbutan-2-yl)-1-(pyrimidin-2-yl)-1H-pyrazole-5-carboxamide], the IC50 was 3 to 10 µM at Human Calpain 9/NS1, below 3 µM on Human Calpain 2/NS1, below 3 µM at Human Calpain 1/NS1 and below 10 µM in experiment [1] (read-out: SH-SY5Y + AMC IC50).

On to `Cn1cc(C(=O)N[C@@H](Cc2ccccc2)C(=O)C(N)=O)c(-c2cccc(OC(F)(F)F)c2)n1` [Compound 184, (S)—N-(4-amino-3,4-dioxo-1-phenylbutan-2-yl)-1-methyl-3-(3-(trifluoromethoxy)phenyl)-1H-pyrazole-4-carboxamide], for which the IC50 at Human Calpain 9/NS1 (Column C) is below 3 µM; on Human Calpain 2/NS1 (Column B) it was below 3 µM; on Human Calpain 1/NS1 (Column A) it was below 3 µM; in experiment [1] (setting [2]), above 25 µM.

On to `Cc1cc(C(=O)N[C@@H](Cc2ccccc2)C(=O)C(N)=O)n(-c2cccc(-c3ccccc3F)c2)n1` [Compound 214, (S)—N-(4-amino-3,4-dioxo-1-phenylbutan-2-yl)-1-(2′-fluoro-[1,1′-biphenyl]-3-yl)-3-methyl-1H-pyrazole-5-carboxamide], for which the IC50 at Human Calpain 9/NS1 (Column C) was below 3 µM; at Human Calpain 2/NS1 (Column B), below 3 µM; at Human Calpain 1/NS1 (Column A), below 3 µM; in experiment [1] (setting [2]), above 25 µM.

On to `NC(=O)C(=O)[C@H](Cc1ccccc1)NC(=O)c1cc(C(F)(F)F)nn1-c1ccccc1` [Compound 305, (S)—N-(4-amino-3,4-dioxo-1-phenylbutan-2-yl)-1-phenyl-3-(trifluoromethyl)-1H-pyrazole-5-carboxamide], for which the IC50 on Human Calpain 9/NS1 was below 3 µM; at Human Calpain 2/NS1 it was below 3 µM; on Human Calpain 1/NS1 it was below 3 µM; in experiment [1] (read-out: SH-SY5Y + AMC IC50), below 10 µM.

As to `Cc1cccc(-c2nsnc2C(=O)NC(Cc2ccccc2)C(=O)C(N)=O)c1F` (centres unmarked) [Compound 368, N-(4-amino-3,4-dioxo-1-phenylbutan-2-yl)-4-(2-fluoro-3-methylphenyl)-1,2,5-thiadiazole-3-carboxamide], the IC50 is below 3 µM at Human Calpain 9/NS1, below 3 µM on Human Calpain 2/NS1, below 3 µM at Human Calpain 1/NS1 and below 10 µM in experiment [1] (read-out: SH-SY5Y + AMC IC50).

On to `NC(=O)C(=O)[C@H](Cc1ccccc1)NC(=O)c1cc(Cl)sc1-c1ccccc1` [Compound 271, (S)—N-(4-amino-3,4-dioxo-1-phenylbutan-2-yl)-5-chloro-2-phenylthiophene-3-carboxamide], for which the IC50 was below 3 µM at Human Calpain 9/NS1 (Column C), below 3 µM at Human Calpain 2/NS1 (Column B), below 3 µM at Human Calpain 1/NS1 (Column A) and above 25 µM in experiment [1] (setting [2]).

In the case of `Cn1cc(C(=O)NC(Cc2ccccc2)C(=O)C(N)=O)c(-c2ccsc2)n1` (centres unmarked) [Compound 503, N-(4-amino-3,4-dioxo-1-phenylbutan-2-yl)-1-methyl-3-(thiophen-3-yl)-1H-pyrazole-4-carboxamide], the IC50 at Human Calpain 9/NS1 is below 3 µM; on Human Calpain 2/NS1, below 3 µM; on Human Calpain 1/NS1, below 3 µM; in experiment [1] (read-out: SH-SY5Y + AMC IC50), 10 to 25 µM.
